pIC50: −log10 of the molar value. Where “and” joins values, the source holds several entries; their conditions need not be identical. Equal entries are not always repeated. One block for each compound: values may come before it.
Test system: 931267-113-T-J1-PDC multicell spheroid viability
Experiment: Anticancer human tumor 931267-113-T-J1-PDC patient-derived colon adenocarcinoma cell line growth inhibition [PI3K]
Conditions: for viability, T/C: stronger effect = lower value
Summary of the method: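 Multi-cell spheroids combine tumor cells with HUVEC and human MSCs, treated with targeted agents alone or with inavolisib, alpelisib, duvelisib or copanlisib. Concentrations fall in half-log steps from at or near clinical Cmax, or from 10 microM where Cmax is unknown; viability read-out.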

[1] = curve of first compound, second compound 0.00316 µM
[2] = curve of first compound, second compound 0.01 µM
[3] = curve of first compound, second compound 0.0316 µM
[4] = curve of first compound, second compound 0.1 µM
[5] = curve of first compound, second compound 0.316 µM
[6] = curve of first compound, second compound 1 µM
[7] = second compound 0.00316 µM, first compound 0.0316 µM
[8] = second compound 0.00316 µM, first compound 0.1 µM
[9] = second compound 0.00316 µM, first compound 0.316 µM
[10] = second compound 0.00316 µM, first compound 1 µM
[11] = second compound 0.00316 µM, first compound 3.16 µM
[12] = second compound 0.00316 µM, first compound 10 µM
[13] = second compound 0.01 µM, first compound 0.0316 µM
[14] = second compound 0.01 µM, first compound 0.1 µM
[15] = second compound 0.01 µM, first compound 0.316 µM
[16] = second compound 0.01 µM, first compound 1 µM
[17] = second compound 0.01 µM, first compound 3.16 µM
[18] = second compound 0.01 µM, first compound 10 µM
[19] = second compound 0.0316 µM, first compound 0.0316 µM
[20] = second compound 0.0316 µM, first compound 0.1 µM
[21] = second compound 0.0316 µM, first compound 0.316 µM
[22] = second compound 0.0316 µM, first compound 1 µM
[23] = second compound 0.0316 µM, first compound 3.16 µM
[24] = second compound 0.0316 µM, first compound 10 µM
[25] = second compound 0.1 µM, first compound 0.0316 µM
[26] = second compound 0.1 µM, first compound 0.1 µM
[27] = second compound 0.1 µM, first compound 0.316 µM
[28] = second compound 0.1 µM, first compound 1 µM
[29] = second compound 0.1 µM, first compound 3.16 µM
[30] = second compound 0.1 µM, first compound 10 µM
[31] = second compound 0.316 µM, first compound 0.0316 µM
[32] = second compound 0.316 µM, first compound 0.1 µM
[33] = second compound 0.316 µM, first compound 0.316 µM
[34] = second compound 0.316 µM, first compound 1 µM
[35] = second compound 0.316 µM, first compound 3.16 µM
[36] = second compound 0.316 µM, first compound 10 µM
[37] = second compound 1 µM, first compound 0.0316 µM
[38] = second compound 1 µM, first compound 0.1 µM
[39] = second compound 1 µM, first compound 0.316 µM
[40] = second compound 1 µM, first compound 1 µM
[41] = second compound 1 µM, first compound 3.16 µM
[42] = second compound 1 µM, first compound 10 µM
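Note: viability read 7 days after compound addition.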

IC50 (curve of compound): 6.15 µM [middle of 4 runs]
SMILES: CCCS(=O)(=O)Nc1ccc(F)c(C(=O)c2c[nH]c3ncc(-c4ccc(Cl)cc4)cc23)c1F
viability, T/C (compound 0.0316 µM): 102% (2×) and 106% and 94%
viability, T/C (compound 0.1 µM): 116% (2×) and 93.5% and 96.7%
viability, T/C (compound 0.316 µM): 109% [middle of 4 runs]
viability, T/C (compound 1 µM): 129% [middle of 4 runs]
viability, T/C (compound 10 µM): 5.21% [middle of 4 runs]

pIC50 [1]: 5.42
pIC50 [2]: 5.56
pIC50 [3]: 5.91
pIC50 [4]: 6.38
pIC50 [5]: > 7.50
pIC50 [6]: > 7.50
SMILES: Cn1nccc1Nc1nccc(-c2ccn(C(CO)c3ccc(Cl)c(F)c3)c(=O)c2)n1 (stereo unspecified) + COc1c(OCCCN2CCOCC2)ccc2c3n(c(=NC(=O)c4cnc(N)nc4)nc12)CCN3
viability, T/C [7]: 94.7%
viability, T/C [8]: 82.3%
viability, T/C [9]: 83.2%
viability, T/C [10]: 77.4%
viability, T/C [11]: 52.2%
viability, T/C [12]: 32.1%
viability, T/C [13]: 97.6%
viability, T/C [14]: 98%
viability, T/C [15]: 79.2%
viability, T/C [16]: 67.5%
viability, T/C [17]: 48.5%
viability, T/C [18]: 22.4%
viability, T/C [19]: 79.7%
viability, T/C [20]: 77%
viability, T/C [21]: 68%
viability, T/C [22]: 55.6%
viability, T/C [23]: 30.6%
viability, T/C [24]: 16.1%
viability, T/C [25]: 70%
viability, T/C [26]: 67.4%
viability, T/C [27]: 52.4%
viability, T/C [28]: 37.4%
viability, T/C [29]: 21.9%
viability, T/C [30]: 10.3%
viability, T/C [31]: 42.7%
viability, T/C [32]: 40.2%
viability, T/C [33]: 35%
viability, T/C [34]: 23.7%
viability, T/C [35]: 13.8%
viability, T/C [36]: 6.64%
viability, T/C [37]: 32.7%
viability, T/C [38]: 29.6%
viability, T/C [39]: 27.3%
viability, T/C [40]: 18.4%
viability, T/C [41]: 9.42%
viability, T/C [42]: 5.13%

Further lines, the compound ahead of its results:

SMILES: Cn1ncc(Cl)c1-c1cc(C(=O)NC(CN)Cc2cccc(F)c2)sc1Cl (stereo unspecified) + COc1c(OCCCN2CCOCC2)ccc2c3n(c(=NC(=O)c4cnc(N)nc4)nc12)CCN3
pIC50 [1]: 5.23
pIC50 [2]: 5.24
pIC50 [3]: 5.31
pIC50 [4]: 5.44
pIC50 [5]: > 7.50
pIC50 [6]: > 7.50
viability, T/C [7]: 95.1%
viability, T/C [8]: 102%
viability, T/C [9]: 89.5%
viability, T/C [10]: 81.8%
viability, T/C [11]: 75.9%
viability, T/C [12]: 30.8%
viability, T/C [13]: 109%
viability, T/C [14]: 95.4%
viability, T/C [15]: 87.4%
viability, T/C [16]: 76%
viability, T/C [17]: 69.6%
viability, T/C [18]: 35.6%
viability, T/C [19]: 90%
viability, T/C [20]: 93.2%
viability, T/C [21]: 82.4%
viability, T/C [22]: 75.3%
viability, T/C [23]: 60.2%
viability, T/C [24]: 34%
viability, T/C [25]: 71.1%
viability, T/C [26]: 70.3%
viability, T/C [27]: 70.1%
viability, T/C [28]: 60%
viability, T/C [29]: 54.3%
viability, T/C [30]: 32.2%
viability, T/C [31]: 47.9%
viability, T/C [32]: 50.4%
viability, T/C [33]: 45.2%
viability, T/C [34]: 47.3%
viability, T/C [35]: 47.5%
viability, T/C [36]: 22.1%
viability, T/C [37]: 34.7%
viability, T/C [38]: 35.6%
viability, T/C [39]: 35.5%
viability, T/C [40]: 33.9%
viability, T/C [41]: 34.8%
viability, T/C [42]: 20%

SMILES: CC1(C)CCC(Nc2ncc(C(F)(F)F)c(-c3c[nH]c4c(P(C)(C)=O)c(C#N)ccc34)n2)CN1 (stereo unspecified) + CC(Nc1ccc2c(c1)OCCn1cc(N3C(=O)OCC3C(F)F)nc1-2)C(N)=O
pIC50 [1]: < 5.00
pIC50 [2]: < 5.00
pIC50 [3]: 5.07
pIC50 [4]: < 5.00
pIC50 [5]: 5.19
pIC50 [6]: 5.32
viability, T/C [7]: 99.7%
viability, T/C [8]: 88.6%
viability, T/C [9]: 85.2%
viability, T/C [10]: 71.8%
viability, T/C [11]: 78.2%
viability, T/C [12]: 49.5%
viability, T/C [13]: 102%
viability, T/C [14]: 89.2%
viability, T/C [15]: 83.5%
viability, T/C [16]: 74.6%
viability, T/C [17]: 67.7%
viability, T/C [18]: 49.8%
viability, T/C [19]: 91.2%
viability, T/C [20]: 88.2%
viability, T/C [21]: 79.6%
viability, T/C [22]: 71.5%
viability, T/C [23]: 72.8%
viability, T/C [24]: 45%
viability, T/C [25]: 99.7%
viability, T/C [26]: 90.5%
viability, T/C [27]: 76.6%
viability, T/C [28]: 74%
viability, T/C [29]: 73.7%
viability, T/C [30]: 46.2%
viability, T/C [31]: 87%
viability, T/C [32]: 79%
viability, T/C [33]: 72.9%
viability, T/C [34]: 74.1%
viability, T/C [35]: 73.1%
viability, T/C [36]: 36%
viability, T/C [37]: 81.4%
viability, T/C [38]: 75.4%
viability, T/C [39]: 64.2%
viability, T/C [40]: 65.2%
viability, T/C [41]: 64.2%
viability, T/C [42]: 34.6%

SMILES: CCN1CCN(Cc2ccc(Nc3ncc(F)c(-c4cc(F)c5nc(C)n(C(C)C)c5c4)n3)nc2)CC1
viability, T/C (compound 0.00316 µM): 101% [middle of 4 runs]
viability, T/C (compound 0.01 µM): 105% (2×) and 103% and 99.8%
viability, T/C (compound 0.0316 µM): 103% [middle of 4 runs]
viability, T/C (compound 0.1 µM): 102% (2×) and 100% and 96.4%
viability, T/C (compound 0.316 µM): 96.2% [middle of 4 runs]
viability, T/C (compound 1 µM): 84.8% [middle of 4 runs]
pIC50 (curve of compound): < 6.00

SMILES: CC1(C)CCC(Nc2ncc(C(F)(F)F)c(-c3c[nH]c4c(P(C)(C)=O)c(C#N)ccc34)n2)CN1 (stereo unspecified) + COc1c(OCCCN2CCOCC2)ccc2c3n(c(=NC(=O)c4cnc(N)nc4)nc12)CCN3
pIC50 [1]: < 5.00
pIC50 [2]: < 5.00
pIC50 [3]: < 5.00
pIC50 [4]: 5.37
pIC50 [5]: > 7.50
pIC50 [6]: > 7.50
viability, T/C [7]: 92.5%
viability, T/C [8]: 94.2%
viability, T/C [9]: 91.6%
viability, T/C [10]: 81.2%
viability, T/C [11]: 76.5%
viability, T/C [12]: 69.3%
viability, T/C [13]: 97.3%
viability, T/C [14]: 89.5%
viability, T/C [15]: 81.5%
viability, T/C [16]: 83.5%
viability, T/C [17]: 77.3%
viability, T/C [18]: 61.5%
viability, T/C [19]: 81.6%
viability, T/C [20]: 78%
viability, T/C [21]: 77.6%
viability, T/C [22]: 67.1%
viability, T/C [23]: 70.6%
viability, T/C [24]: 55.2%
viability, T/C [25]: 64.5%
viability, T/C [26]: 66.1%
viability, T/C [27]: 60%
viability, T/C [28]: 58.2%
viability, T/C [29]: 55.5%
viability, T/C [30]: 39.8%
viability, T/C [31]: 47.3%
viability, T/C [32]: 44.8%
viability, T/C [33]: 41.2%
viability, T/C [34]: 41.5%
viability, T/C [35]: 40.6%
viability, T/C [36]: 33.5%
viability, T/C [37]: 33.8%
viability, T/C [38]: 30.1%
viability, T/C [39]: 30.2%
viability, T/C [40]: 28.3%
viability, T/C [41]: 30.5%
viability, T/C [42]: 20.9%
